Experimental findings from publication PMC6109596 (Cancer letters, 2018) are described below.

This assay concerns the target ABCB1 (P-glycoprotein/MDR1) (Homo sapiens, UniProt P08183). The assay is described as follows: biochemical.

ABCB1 (P-glycoprotein/MDR1), sequence (P08183 whole entry): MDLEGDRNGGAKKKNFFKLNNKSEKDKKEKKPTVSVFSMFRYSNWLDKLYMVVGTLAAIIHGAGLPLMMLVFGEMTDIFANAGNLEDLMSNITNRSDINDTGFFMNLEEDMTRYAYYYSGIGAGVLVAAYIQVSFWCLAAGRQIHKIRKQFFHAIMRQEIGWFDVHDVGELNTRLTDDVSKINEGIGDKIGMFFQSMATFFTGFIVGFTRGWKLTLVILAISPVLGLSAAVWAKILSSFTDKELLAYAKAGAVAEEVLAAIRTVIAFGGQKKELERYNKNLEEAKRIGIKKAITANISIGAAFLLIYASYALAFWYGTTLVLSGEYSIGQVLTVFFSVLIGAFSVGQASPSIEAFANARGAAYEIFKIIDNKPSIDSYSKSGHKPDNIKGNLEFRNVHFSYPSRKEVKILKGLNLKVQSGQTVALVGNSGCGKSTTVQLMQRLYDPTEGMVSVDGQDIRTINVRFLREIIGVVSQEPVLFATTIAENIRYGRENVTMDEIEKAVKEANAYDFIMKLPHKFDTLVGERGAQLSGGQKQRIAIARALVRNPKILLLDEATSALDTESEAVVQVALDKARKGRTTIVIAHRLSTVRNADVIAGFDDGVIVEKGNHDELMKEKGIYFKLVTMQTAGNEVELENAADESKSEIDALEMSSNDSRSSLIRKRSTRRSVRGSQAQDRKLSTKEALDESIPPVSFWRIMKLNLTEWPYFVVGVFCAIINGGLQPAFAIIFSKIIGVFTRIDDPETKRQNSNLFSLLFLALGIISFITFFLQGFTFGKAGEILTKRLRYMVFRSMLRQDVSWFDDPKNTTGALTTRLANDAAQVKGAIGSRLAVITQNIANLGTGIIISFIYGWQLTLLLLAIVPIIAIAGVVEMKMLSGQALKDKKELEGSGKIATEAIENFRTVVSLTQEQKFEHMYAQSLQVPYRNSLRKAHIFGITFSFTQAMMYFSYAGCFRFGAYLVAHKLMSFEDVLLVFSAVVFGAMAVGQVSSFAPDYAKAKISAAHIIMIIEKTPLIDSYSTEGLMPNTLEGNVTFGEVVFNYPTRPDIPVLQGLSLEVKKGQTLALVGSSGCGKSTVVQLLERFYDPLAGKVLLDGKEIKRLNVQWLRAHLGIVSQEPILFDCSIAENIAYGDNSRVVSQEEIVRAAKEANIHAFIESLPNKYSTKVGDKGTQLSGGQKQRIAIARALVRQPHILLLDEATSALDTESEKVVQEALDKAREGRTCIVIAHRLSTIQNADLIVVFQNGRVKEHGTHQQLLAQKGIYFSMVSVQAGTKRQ

In turn, `N#Cc1cc2c(OCC(O)CN3CCN(C(c4ccccc4)c4ccccc4)CC3)cccc2[nH]1` (racemic) [DPI-201106] registered an IC50 of approximately 500 nM.

A word on the IC50: it is the point on the concentration scale where inhibition reaches its midpoint. Higher therefore signals weaker potency in that assay.
